Source: EP2687213B1, “Solid forms comprising (+)-2-[1-(3-ethoxy-4-methoxyphenyl)-2-methylsulfonylethyl]-4-acetylaminoisoindoline-1,3-dione, compositions thereof, and uses thereof” (CELGENE CORPORATION, priority 2008, dated 2009)

Key:
bovine PDE1 = assay: PDE1 enzyme assay; format: biochemical; details: from PDE inhibition data of Table 1
human PDE2 = human PDE2 (Homo sapiens, UniProt O00408); assay: PDE2 enzyme assay; format: biochemical; details: from PDE inhibition data of Table 1
[1] = target: PDE3 from human platelets (Homo sapiens, UniProt Q14432); assay: PDE3 enzyme assay; format: biochemical; details: from PDE inhibition data of Table 1
[2] = target: PDE5 from human platelets (Homo sapiens, UniProt O76074); assay: PDE5 enzyme assay; format: biochemical; details: from PDE inhibition data of Table 1
[3] = target: PDE7 purified from Hut78 human T cells (Homo sapiens, UniProt Q13946); assay: PDE7 enzyme assay; format: biochemical; details: from PDE inhibition data of Table 1
Description: PDE7 is a cAMP-selective PDE expressed mainly in T cells and in skeletal muscle. T cell-derived cytokines such as IL-2 and IFN-γ are potentially regulatable via PDE7 inhibition. […] Compounds were tested against the PDE7 preparation in the presence of 10 nM cAMP as described for PDE4 in Table 1.

[4] = Solid form stability studies (XRPD); format: physicochemical
Description: Stability Studies. The stabilities of Forms A, B, C and D were studied by exposing the solid samples to the stress condition of 40 °C / 75% RH for four weeks. Moreover, the stabilities of Forms A, B, C and D in different solvents were studied by equilibration in different solvents at 40 °C for four weeks. The slurries then were filtered and dried in the air. Solid samples obtained from the stability experiments were analyzed by XRPD and DSC.

[5] = Solid form interconversion studies (slurry, XRPD); format: physicochemical; details: EQ in acetone:ethanol (1:1) at 25 °C, at least 2 days
Description: Interconversion Studies. Interconversion experiments were performed by making slurries of a solid form in a saturated solvent. The slurries were agitated for at least 2 days at about 25 °C. The saturated solution was removed by filtration and the solid was dried in the air.

[6] = Hygroscopicity studies (DVS moisture sorption/desorption); format: physicochemical
Description: Hygroscopicity studies. The hygroscopicity of various solid forms was studied using a Surface Measurement Systems DVS instrument. Typically a sample size of between about 10-50 mg was loaded into the DVS instrument sample pan and the sample was analyzed on a DVS automated sorption analyzer at about 25 °C. The relative humidity was increased in increments of about 10% from about 0% to about 95% RH. The relative humidity was then decreased in a similar manner to accomplish a full adsorption/desorption cycle. The mass was recorded at periodic intervals throughout the experiment.

[7] = Compression studies (2000 psi, XRPD); details: 2000 psi for at least one minute
[8] = target: T1, PDE6 from bovine retinal rod outer segments (Bos taurus, UniProt P11541+P23439); assay: PDE6 enzyme assay; format: biochemical; details: from PDE inhibition data of Table 1
T1 construct: PDE6 from bovine retinal rod outer segments; from tissue; host or cells: bovine retinal rod outer segments
T1 sequence (P11541 2-856 limits assumed): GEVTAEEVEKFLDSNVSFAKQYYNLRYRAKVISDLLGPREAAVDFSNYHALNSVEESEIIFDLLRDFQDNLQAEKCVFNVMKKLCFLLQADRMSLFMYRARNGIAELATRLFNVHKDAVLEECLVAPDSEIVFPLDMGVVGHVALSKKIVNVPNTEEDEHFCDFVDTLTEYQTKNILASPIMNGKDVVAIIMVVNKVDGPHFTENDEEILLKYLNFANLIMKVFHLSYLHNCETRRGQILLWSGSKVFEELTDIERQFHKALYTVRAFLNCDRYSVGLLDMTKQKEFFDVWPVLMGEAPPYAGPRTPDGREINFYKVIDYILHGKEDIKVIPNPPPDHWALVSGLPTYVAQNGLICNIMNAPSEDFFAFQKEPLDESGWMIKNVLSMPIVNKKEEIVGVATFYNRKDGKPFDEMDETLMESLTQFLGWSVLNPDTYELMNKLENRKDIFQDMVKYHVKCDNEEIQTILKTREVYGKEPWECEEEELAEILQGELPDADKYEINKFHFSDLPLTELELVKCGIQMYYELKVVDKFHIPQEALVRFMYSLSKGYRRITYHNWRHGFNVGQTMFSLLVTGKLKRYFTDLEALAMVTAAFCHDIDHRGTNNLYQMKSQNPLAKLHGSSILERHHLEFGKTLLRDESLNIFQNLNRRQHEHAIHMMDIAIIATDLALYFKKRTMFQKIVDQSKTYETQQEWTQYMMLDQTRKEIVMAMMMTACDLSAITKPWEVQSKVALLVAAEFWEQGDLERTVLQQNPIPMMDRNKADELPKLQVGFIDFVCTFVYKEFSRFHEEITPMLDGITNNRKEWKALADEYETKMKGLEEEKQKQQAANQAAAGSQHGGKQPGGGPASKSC
T1 sequence (P23439 2-850 limits assumed): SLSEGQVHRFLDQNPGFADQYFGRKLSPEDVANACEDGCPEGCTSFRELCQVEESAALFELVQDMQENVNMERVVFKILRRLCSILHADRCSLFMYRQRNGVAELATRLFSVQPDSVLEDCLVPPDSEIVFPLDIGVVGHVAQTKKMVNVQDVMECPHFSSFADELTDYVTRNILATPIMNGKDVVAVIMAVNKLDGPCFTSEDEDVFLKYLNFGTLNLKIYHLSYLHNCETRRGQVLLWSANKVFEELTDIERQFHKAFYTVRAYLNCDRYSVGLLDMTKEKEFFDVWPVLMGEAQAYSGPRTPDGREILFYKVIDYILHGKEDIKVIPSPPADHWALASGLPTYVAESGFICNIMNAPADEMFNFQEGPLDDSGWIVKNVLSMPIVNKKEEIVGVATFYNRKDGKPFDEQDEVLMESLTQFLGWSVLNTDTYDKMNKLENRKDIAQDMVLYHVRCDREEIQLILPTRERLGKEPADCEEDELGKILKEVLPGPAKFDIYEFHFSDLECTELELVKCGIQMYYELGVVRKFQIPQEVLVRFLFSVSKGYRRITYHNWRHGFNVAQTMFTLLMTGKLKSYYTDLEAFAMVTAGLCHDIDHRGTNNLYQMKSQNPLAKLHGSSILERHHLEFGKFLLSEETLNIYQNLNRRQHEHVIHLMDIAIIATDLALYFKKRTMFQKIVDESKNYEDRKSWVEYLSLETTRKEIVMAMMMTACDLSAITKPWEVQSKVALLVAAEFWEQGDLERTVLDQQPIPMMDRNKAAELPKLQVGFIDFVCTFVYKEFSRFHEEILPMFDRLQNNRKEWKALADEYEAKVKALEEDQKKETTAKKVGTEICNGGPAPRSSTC

human PDE2, sequence (O00408 whole entry): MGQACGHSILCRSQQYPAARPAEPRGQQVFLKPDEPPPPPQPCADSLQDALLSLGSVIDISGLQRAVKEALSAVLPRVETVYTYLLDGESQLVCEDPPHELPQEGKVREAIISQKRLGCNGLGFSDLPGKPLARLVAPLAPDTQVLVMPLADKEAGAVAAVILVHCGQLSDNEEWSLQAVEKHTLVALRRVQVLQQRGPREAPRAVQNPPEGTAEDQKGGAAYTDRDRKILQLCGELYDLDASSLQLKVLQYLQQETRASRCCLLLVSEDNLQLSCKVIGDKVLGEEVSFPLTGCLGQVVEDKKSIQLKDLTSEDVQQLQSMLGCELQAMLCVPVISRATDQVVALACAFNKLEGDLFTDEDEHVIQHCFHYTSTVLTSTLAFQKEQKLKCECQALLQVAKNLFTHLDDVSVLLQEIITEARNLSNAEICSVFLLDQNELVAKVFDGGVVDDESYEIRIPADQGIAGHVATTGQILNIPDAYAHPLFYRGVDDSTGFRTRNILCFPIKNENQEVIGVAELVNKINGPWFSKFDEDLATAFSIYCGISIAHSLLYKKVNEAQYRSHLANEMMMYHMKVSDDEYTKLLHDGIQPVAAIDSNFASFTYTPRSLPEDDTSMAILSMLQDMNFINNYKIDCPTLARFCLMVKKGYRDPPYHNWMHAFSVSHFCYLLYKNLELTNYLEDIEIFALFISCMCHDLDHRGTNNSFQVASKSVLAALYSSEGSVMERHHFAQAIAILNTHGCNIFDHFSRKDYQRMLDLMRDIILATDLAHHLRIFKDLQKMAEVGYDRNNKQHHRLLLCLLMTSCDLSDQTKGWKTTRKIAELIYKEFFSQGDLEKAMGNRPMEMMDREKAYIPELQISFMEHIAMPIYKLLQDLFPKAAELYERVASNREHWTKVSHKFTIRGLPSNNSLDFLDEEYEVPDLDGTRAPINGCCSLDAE
PDE3 from human platelets, sequence (Q14432 whole entry): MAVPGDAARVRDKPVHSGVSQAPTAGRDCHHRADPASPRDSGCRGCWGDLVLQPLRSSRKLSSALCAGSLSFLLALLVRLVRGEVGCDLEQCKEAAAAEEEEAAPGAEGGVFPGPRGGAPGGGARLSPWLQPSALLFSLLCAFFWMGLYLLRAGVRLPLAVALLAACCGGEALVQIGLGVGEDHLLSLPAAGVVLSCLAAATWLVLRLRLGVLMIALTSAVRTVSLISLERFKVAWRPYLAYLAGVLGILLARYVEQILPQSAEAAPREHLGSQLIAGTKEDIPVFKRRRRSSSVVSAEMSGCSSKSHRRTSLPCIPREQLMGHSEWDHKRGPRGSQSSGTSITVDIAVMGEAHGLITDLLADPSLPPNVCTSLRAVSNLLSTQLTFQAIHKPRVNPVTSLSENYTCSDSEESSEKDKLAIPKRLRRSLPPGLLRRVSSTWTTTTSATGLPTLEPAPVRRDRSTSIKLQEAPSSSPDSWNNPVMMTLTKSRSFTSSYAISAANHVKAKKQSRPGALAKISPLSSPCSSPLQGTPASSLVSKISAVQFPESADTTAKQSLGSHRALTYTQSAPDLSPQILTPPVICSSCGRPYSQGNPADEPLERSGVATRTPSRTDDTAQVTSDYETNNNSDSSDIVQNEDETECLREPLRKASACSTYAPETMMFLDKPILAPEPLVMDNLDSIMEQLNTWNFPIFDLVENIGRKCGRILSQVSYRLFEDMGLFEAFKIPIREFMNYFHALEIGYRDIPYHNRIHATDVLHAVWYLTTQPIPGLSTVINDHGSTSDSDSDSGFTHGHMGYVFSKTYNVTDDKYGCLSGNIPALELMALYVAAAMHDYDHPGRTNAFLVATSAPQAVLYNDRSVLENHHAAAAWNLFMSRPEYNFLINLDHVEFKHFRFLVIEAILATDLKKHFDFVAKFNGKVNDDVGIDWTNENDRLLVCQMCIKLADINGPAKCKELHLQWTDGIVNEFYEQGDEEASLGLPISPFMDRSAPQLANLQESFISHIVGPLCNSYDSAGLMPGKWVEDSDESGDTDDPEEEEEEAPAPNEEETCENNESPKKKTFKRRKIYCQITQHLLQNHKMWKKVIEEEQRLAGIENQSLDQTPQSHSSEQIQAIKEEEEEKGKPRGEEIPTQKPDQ
PDE7 purified from Hut78 human T cells, sequence (Q13946 whole entry): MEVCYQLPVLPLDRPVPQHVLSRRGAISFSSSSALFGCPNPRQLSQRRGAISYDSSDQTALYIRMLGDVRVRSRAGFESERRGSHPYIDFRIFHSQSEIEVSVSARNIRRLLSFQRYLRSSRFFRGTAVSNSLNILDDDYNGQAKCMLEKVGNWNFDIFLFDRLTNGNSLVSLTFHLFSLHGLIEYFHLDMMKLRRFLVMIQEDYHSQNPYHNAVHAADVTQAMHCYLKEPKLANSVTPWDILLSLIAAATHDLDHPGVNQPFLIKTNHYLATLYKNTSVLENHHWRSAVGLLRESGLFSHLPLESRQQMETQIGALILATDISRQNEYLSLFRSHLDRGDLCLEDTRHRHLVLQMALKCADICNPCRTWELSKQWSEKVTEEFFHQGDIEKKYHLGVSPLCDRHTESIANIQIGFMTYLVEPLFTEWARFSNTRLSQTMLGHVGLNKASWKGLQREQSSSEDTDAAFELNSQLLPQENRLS

PDE Specificity Ratio PDE4/PDE6 [8] | SMILES | PDE Specificity Ratio PDE4/PDE1 (bovine PDE1) | PDE Specificity Ratio PDE4/PDE2 (human PDE2) | PDE Specificity Ratio PDE4/PDE3 [1] | PDE Specificity Ratio PDE4/PDE5 [2] | PDE Specificity Ratio PDE7 IC50/PDE4 IC50 [3] | Analysis by XRPD (resulting form) ([4]; 40 °C / 75% RH, 4 weeks) | Analysis by XRPD (resulting form) ([4]; EQ in ethanol at 40 °C for 4 weeks) | Analysis by XRPD (resulting form) ([4]; EQ in heptane at 40 °C for 4 weeks) | Analysis by XRPD (resulting form) ([4]; EQ in toluene at 40 °C for 4 weeks) | Analysis by XRPD (resulting form) ([4]; EQ in water at 40 °C for 4 weeks) | Analysis by XRPD (resulting form) [5] | solid-state transformation after full adsorption/desorption cycle (XRPD) ([6]; DVS, 0% to 95% RH and back) | mass change of the starting mass of the sample ([6]; RH increased from about 0% to about 95% RH, about 25 °C) | hygroscopicity ([6]; moisture sorption analysis, 0% to 95% RH) | physical stability upon compression (XRPD) [7]
 | CCOc1cc(C(CS(C)(=O)=O)N2C(=O)c3cccc(NC(C)=O)c3C2=O)ccc1OC (racemic) [Racemic Compound, 2-[1-(3-Ethoxy-4-methoxyphenyl)-2-methylsulfonylethyl]-4-acetylaminoisoindoline-1,3-dione] | >2700 fold | >800 fold | >670 fold | >12000 fold | 270 fold |  |  |  |  |  |  |  |  |  | 
 | CCOc1cc(C(CS(C)(=O)=O)N2C(=O)c3cccc(NC(C)=O)c3C2=O)ccc1OC (single isomer, unassigned; (+)) [Form D, (+)-2-[1-(3-ethoxy-4-methoxyphenyl)-2-methylsulfonylethyl]-4-acetylaminoisoindoline-1,3-dione] |  |  |  |  |  | stable | converts to Form B | converts to Form B | converts to Form C | converts to Form B | Form B | none of the forms analyzed underwent substantial solid-state transformation | about 1.5% | slightly hygroscopic | substantially physically stable
>250 fold | CCOc1cc([C@H](CS(C)(=O)=O)N2C(=O)c3cccc(NC(C)=O)c3C2=O)ccc1OC [Compound B] | >50 fold | >260 fold | >45 fold | >39000 fold |  |  |  |  |  |  |  |  |  |  | 
